According to patent US9051313B2, “Apoptosis signal-regulating kinase inhibitors” (Gilead Sciences, Inc., priority 2012, dated 2015):

What was measured:
[1] = molecular target: recombinant human ASK1 kinase (Homo sapiens (Human), UniProt Q99683); test: TR-FRET ASK1 kinase assay (HTRF KinEASE-STK); assay type: biochemical
Text: Dephosphorylated recombinant human ASK1 kinase was from Gilead Sciences. […] ATP (catalogue # 7724) was from Affymetrix (Santa Clara, Calif.) and test compounds were from Gilead Sciences. HTRF KinEASE™-STK S3 kit was obtained from Cisbio (Bedford, Mass.). All other reagents were of the highest grade commercially available. The assay measures the phosphorylation level of a biotinylated peptide substrate by the ASK1 kinase using HTRF detection (6.1). This is a competitive, time-resolved fluorescence resonance energy transfer (TR-FRET) immunoassay, based on HTRF® KinEASE™-STK manual from Cisbio (6.1). […] Peptide antibody labeled with 1× Eu^3+ Cryptate buffer containing 10 mM EDTA and 125 nM Streptavidin XL665 are added to stop the reaction and phosphorylated peptide substrate is detected using Envision 2103 Multilabeled reader from PerkinElmer. The fluorescence is measured at 615 nm (Cryptate) and 665 nm (XL665) and a ratio of 665 nm/615 nm is calculated for each well. The resulting TR-FRET level (a ratio of 665 nm/615 nm) is proportional to the phosphorylation level. Under these assay conditions, the degree of phosphorylation of peptide substrate was linear with time and concentration for the enzyme. The assay system yielded consistent results with regard to Km and specific activities for the enzyme. For inhibition experiments (IC50 values), activities were performed with constant concentrations of ATP, peptide and several fixed concentrations of inhibitors. […] All enzyme activity data are reported as an average of quadruplicate determination. […] Enzyme activity is expressed as the amount of Phosphate incorporated into substrate peptide from ATP. Range is the maximum y range (no inhibitor, DMSO control) and s is a slope factor (6.2). Results

[2] = molecular target: ASK1 (kinase active, 631-1381 of rat ASK1 cDNA) in 293/AP1-Luc cells (Rattus norvegicus, UniProt A0A8I6AEL0); test: ASK1 293 cell-based assay (Cellular EC50), AP-1:luciferase reporter; conditions: 293/AP1-Luc cells infected with adenovirus expressing ASK1, 24 hours
Experimental: ASK1 (Apoptosis Signal-Regulating Kinase 1) 293 cell-based assay (Cellular EC50)
The cellular potency of compounds was assayed in cells stably expressing an AP-1: luciferase reporter construct (293/AP1-Luc cells—Panomics Inc., 6519 Dumbarton Circle, Fremont, Calif.). Cells were infected with an adenovirus expressing kinase active ASK1 (631-1381 of rat ASK1 cDNA), which will activate the AP-1 transcription factor and increase the expression of luciferase. Inhibitors of ASK1 will decrease the enzyme activity of ASK1 and therefore decrease the activity of AP-1 transcription factor and the expression of luciferase.
2. Reference Materials • 1. Panomics 293/AP1-Luc stable cell-line product insert. • 2. Promega Steady-Glo Luciferase Assay System product insert. 3. Media Required 3. Complete Growth Medium, “CGM” • a. DMEM (MediaTech) • b. 10% FBS • c. 1% PSG • d. 100 ug/mL HygromycinB 4. Assay Medium, “AM” • a. DMEM (Invitrogen) • b. 25 mM HEPES • c. 1 mM Sodium Pyruvate • d. 1% PSG 4. Methods Maintenance: • 1. 293/AP1-Luc Maintain 293/Acells per vendor's instructions; harvest cells at ˜80% confluence in T150 flasks as follows: • a. Aspirate media, wash gently with ˜12 mL sterile D-PBS, aspirate. • b. Add 5 mL Trypsin-EDTA, tilt gently to coat flask, and incubate ˜5 min. at 37° C. • c. […] Aspirate media from cell pellet, add 20 to 30 mL CGM, resuspend pellet by pipeting 6×, pass through cell strainer to disperse clumps (if necessary), and count cells with hemocytometer. Assay Day 1: 2. Harvest cells as above, except resuspend cell pellet. Count cells and dilute to 1.5×10^5 cells per mL; add adenovirus such that there are 5 infectious forming units per cell. 3. Prime (20 to 30 mL) and plate cells in Greiner poly-D-Lysine coated 384-well plates at 1.2×10^4 cells per well using BioTek uFill (80 uL per well). 4. Immediately dose plates with 0.4 uL of compound dose series (in 100% DMSO) incubate 24 hours in humidified incubator (37° C., 5% CO2). Assay Day 2: 5. Process plates (per manufacturer's instructions) as follows: • a. Set plates in laminar flow hood & uncover for 30 minutes at room temperature to cool. • b. Remove 60 uL of AM from assay wells • c. Add 20 uL per well Steady-Glo Firefly substrate, let sit for 10-20 minutes at room temperature • d. Cover bottom of assay plates with white backing tape. • e. Acquire data on a […] plate reader

[3] = TR-FRET, 100 μM ATP, 4 nM ASK1 kinase, average of quadruplicate
[4] = Compounds 6-17, same competitive TR-FRET immunoassay

ASK1 (kinase active, 631-1381 of rat ASK1 cDNA) in 293/AP1-Luc cells, sequence (A0A8I6AEL0 1-1381): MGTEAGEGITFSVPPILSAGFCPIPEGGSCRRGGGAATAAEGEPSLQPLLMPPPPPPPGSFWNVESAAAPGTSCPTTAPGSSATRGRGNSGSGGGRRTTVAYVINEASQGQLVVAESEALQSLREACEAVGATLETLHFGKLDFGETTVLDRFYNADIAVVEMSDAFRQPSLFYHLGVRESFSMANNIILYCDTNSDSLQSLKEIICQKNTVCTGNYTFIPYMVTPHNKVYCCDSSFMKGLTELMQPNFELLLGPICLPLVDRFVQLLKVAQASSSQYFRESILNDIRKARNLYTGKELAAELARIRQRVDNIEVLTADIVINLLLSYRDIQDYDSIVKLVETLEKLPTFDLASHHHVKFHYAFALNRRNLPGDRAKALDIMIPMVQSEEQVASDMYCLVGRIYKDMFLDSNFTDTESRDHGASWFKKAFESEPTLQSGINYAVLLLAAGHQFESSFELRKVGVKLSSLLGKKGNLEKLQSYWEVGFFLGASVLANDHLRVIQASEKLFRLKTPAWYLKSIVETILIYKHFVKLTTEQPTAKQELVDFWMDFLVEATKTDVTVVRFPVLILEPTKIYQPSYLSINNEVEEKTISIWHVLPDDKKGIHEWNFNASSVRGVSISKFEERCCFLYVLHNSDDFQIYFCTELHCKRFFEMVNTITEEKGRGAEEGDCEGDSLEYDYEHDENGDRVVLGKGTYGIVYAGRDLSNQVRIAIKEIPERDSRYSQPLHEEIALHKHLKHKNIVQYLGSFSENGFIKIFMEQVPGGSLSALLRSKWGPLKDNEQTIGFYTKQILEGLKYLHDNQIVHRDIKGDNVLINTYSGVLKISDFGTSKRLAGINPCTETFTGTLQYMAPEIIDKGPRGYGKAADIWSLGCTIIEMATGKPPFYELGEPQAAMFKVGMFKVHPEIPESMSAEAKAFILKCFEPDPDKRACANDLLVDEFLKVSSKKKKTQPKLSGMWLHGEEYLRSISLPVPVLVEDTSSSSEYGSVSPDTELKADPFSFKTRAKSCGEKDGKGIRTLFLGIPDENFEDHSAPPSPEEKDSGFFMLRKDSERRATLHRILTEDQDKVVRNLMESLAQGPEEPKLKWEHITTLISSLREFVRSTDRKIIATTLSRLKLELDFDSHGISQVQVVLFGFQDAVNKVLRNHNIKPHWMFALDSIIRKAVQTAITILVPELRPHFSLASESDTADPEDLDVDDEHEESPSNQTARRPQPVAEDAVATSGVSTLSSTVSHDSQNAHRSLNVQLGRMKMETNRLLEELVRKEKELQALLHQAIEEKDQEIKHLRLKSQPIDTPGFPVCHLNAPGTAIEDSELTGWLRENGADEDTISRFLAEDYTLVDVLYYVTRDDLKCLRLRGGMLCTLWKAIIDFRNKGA
recombinant human ASK1 kinase, sequence (Q99683 whole entry): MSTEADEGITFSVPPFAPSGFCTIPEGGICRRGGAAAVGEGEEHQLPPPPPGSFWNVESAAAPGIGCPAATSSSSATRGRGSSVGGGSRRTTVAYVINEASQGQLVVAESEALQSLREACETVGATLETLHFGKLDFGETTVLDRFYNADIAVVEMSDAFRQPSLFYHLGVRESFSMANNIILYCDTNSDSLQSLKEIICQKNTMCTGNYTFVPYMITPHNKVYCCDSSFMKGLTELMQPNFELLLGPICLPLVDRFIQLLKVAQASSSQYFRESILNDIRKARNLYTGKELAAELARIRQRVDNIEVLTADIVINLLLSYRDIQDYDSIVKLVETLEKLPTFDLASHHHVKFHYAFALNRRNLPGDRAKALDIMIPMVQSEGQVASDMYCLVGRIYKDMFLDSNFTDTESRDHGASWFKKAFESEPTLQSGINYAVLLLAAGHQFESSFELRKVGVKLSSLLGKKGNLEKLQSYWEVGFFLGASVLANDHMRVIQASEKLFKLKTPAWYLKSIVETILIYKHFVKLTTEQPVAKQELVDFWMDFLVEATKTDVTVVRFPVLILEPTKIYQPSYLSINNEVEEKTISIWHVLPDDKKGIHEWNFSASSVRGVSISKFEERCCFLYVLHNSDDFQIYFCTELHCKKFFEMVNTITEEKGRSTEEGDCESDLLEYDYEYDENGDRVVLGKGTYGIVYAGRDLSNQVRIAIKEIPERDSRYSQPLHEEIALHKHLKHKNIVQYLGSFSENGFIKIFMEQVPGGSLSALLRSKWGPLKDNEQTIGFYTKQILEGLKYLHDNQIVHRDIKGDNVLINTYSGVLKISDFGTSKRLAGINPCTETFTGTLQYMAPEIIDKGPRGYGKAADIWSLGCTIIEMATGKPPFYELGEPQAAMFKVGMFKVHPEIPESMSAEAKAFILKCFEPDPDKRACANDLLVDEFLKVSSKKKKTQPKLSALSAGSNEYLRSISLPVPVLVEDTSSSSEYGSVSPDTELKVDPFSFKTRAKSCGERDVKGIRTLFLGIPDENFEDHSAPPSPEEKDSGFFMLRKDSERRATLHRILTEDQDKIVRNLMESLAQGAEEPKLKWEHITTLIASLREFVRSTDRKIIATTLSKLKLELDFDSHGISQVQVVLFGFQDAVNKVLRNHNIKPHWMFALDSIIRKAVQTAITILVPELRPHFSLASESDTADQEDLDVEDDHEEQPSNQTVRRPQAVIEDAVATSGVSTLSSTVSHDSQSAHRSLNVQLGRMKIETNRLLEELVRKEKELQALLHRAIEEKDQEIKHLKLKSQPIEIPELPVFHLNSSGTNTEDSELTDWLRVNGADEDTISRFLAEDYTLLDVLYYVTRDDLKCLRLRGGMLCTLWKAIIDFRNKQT

Question: `O=C(Nc1csc(-c2nncn2C2CC2)n1)c1cc(-n2cnc(C3CC3)c2)c(N2CCOCC2)cn1` [Example 1, 4-(4-cyclopropyl-1H-imidazol-1-yl)-N-(2-(4-cyclopropyl-4H-1,2,4-triazol-3-yl)thiazol-4-yl)-5-morpholinopicolinamide] was tested. Which IC50 [1, 3] did it give?
Answer: 1.44 nM

Question: What about the EC50 [2] of the same compound?
Answer: 13.2 nM

Question: Which results are given for `CC1(O)CN(c2cnc(C(=O)Nc3csc(-c4nncn4C4CC4)n3)cc2-n2cnc(C3CC3)c2)C1` [Example 2, 4-(4-cyclopropyl-1H-imidazol-1-yl)-N-(2-(4-cyclopropyl-4H-1,2,4-triazol-3-yl)thiazol-4-yl)-5-(3-hydroxy-3-methylazetidin-1-yl)picolinamide]?
Answer: IC50 [1, 3]: 1.58 nM; EC50 [2]: 11.2 nM

Question: With `C[C@H](n1cnnc1-c1nc(NC(=O)c2cc(-n3cnc(C4CC4)c3)c(N3CCOCC3)cn2)cs1)C(F)(F)F` [Example 3, (S)-4-(4-cyclopropyl-1H-imidazol-1-yl)-5-morpholino-N-(2-(4-(1,1,1-trifluoropropan-2-yl)-4H-1,2,4-triazol-3-yl)thiazol-4-yl)picolinamide] as the compound, how does the IC50 [1, 3] read?
Answer: 2.62 nM

Question: What about the EC50 [2] of the same compound?
Answer: 6.74 nM

Question: For `C[C@H](n1cnnc1-c1nc(NC(=O)c2cc(-n3cnc(C4CC4)c3)c(N3CC(C)(O)C3)cn2)cs1)C(F)(F)F` [Example 4, (S)-4-(4-cyclopropyl-1H-imidazol-1-yl)-5-(3-hydroxy-3-methylazetidin-1-yl)-N-(2-(4-(1,1,1-trifluoropropan-2-yl)-4H-1,2,4-triazol-3-yl)thiazol-4-yl)picolinamide], which IC50 [1, 3] is on record?
Answer: 1.69 nM

Question: And the EC50 [2]?
Answer: 5.21 nM

Question: With `C[C@H](n1cnnc1-c1nc(NC(=O)c2cc(-n3cnc(C4CC4)c3)c(N(C)C)cn2)cs1)C(F)(F)F` [Example 5, (S)-4-(4-cyclopropyl-1H-imidazol-1-yl)-5-(dimethylamino)-N-(2-(4-(1,1,1-trifluoropropan-2-yl)-4H-1,2,4-triazol-3-yl)thiazol-4-yl)picolinamide] as the compound, how does the IC50 [1, 3] read?
Answer: 1.88 nM

Question: And the EC50 [2]?
Answer: 7.12 nM

Question: Which IC50 [1, 4] does the source give for `O=C(Nc1csc(-c2nncn2C2CC2)n1)c1cc(-n2cnc(C3CC3)c2)c(N2CCC2)cn1` [Example 6, 5-(azetidin-1-yl)-4-(4-cyclopropylimidazol-1-yl)-N-[2-(4-cyclopropyl-1,2,4-triazol-3-yl)-1,3-thiazol-4-yl]pyridine-2-carboxamide] here?
Answer: 2.4 nM

Question: For `C[C@H](n1cnnc1-c1nc(NC(=O)c2cc(-n3cnc(C4CC4)c3)c(N3CCC3)cn2)cs1)C(F)(F)F` [Example 7, (S)-5-(azetidin-1-yl)-4-(4-cyclopropyl-1H-imidazol-1-yl)-N-(2-(4-(1,1,1-trifluoropropan-2-yl)-4H-1,2,4-triazol-3-yl)thiazol-4-yl)picolinamide], which IC50 [1, 4] is on record?
Answer: 1.7 nM

Question: With `C[C@H](n1cnnc1-c1nc(NC(=O)c2cc(-n3cnc(C4CC4)c3)c(N3CCCC3)cn2)cs1)C(F)(F)F` [Example 8, (S)-4-(4-cyclopropyl-1H-imidazol-1-yl)-5-(pyrrolidin-1-yl)-N-(2-(4-(1,1,1-trifluoropropan-2-yl)-4H-1,2,4-triazol-3-yl)thiazol-4-yl)picolinamide] as the compound, how does the IC50 [1, 4] read?
Answer: 2.2 nM

Question: For `O=C(Nc1csc(-c2nncn2C2CC2)n1)c1cc(-n2cnc(C3CC3)c2)c(N2CCCC2)cn1` [Example 9, 4-(4-cyclopropylimidazol-1-yl)-N-[2-(4-cyclopropyl-1,2,4-triazol-3-yl)-1,3-thiazol-4-yl]-5-pyrrolidin-1-ylpyridine-2-carboxamide], which IC50 [1, 4] is on record?
Answer: 1.9 nM

Question: How did the IC50 [1, 4] turn out when `O=C(Nc1csc(-c2nncn2C2CC2)n1)c1cc(-n2cnc(C3CC3)c2)c(N2CCC(O)C2)cn1` (stereo not shown) [Example 10, 4-(4-cyclopropylimidazol-1-yl)-N-[2-(4-cyclopropyl-1,2,4-triazol-3-yl)-1,3-thiazol-4-yl]-5-(3-hydroxypyrrolidin-1-yl)pyridine-2-carboxamide] was run?
Answer: 3 nM

Question: `C[C@H](n1cnnc1-c1nc(NC(=O)c2cc(-n3cnc(C4CC4)c3)c(N3CCC(O)C3)cn2)cs1)C(F)(F)F` (stereo partly drawn) [Example 11, 4-(4-cyclopropyl-1H-imidazol-1-yl)-5-(3-hydroxypyrrolidin-1-yl)-N-(2-(4-((S)-1,1,1-trifluoropropan-2-yl)-4H-1,2,4-triazol-3-yl)thiazol-4-yl)picolinamide] was tested. Which IC50 [1, 4] did it give?
Answer: 2.2 nM

Question: For `O=C(Nc1csc(-c2nncn2C2CC2)n1)c1cc(-n2cnc(C3CC3)c2)c(N2CCCCC2)cn1` [Example 12, 4-(4-cyclopropylimidazol-1-yl)-N-[2-(4-cyclopropyl-1,2,4-triazol-3-yl)-1,3-thiazol-4-yl]-5-piperidin-1-ylpyridine-2-carboxamide], which IC50 [1, 4] is on record?
Answer: 2 nM

Question: For `C[C@H](n1cnnc1-c1nc(NC(=O)c2cc(-n3cnc(C4CC4)c3)c(N3CCCCC3)cn2)cs1)C(F)(F)F` [Example 13, (S)-4-(4-cyclopropyl-1H-imidazol-1-yl)-5-(piperidin-1-yl)-N-(2-(4-(1,1,1-trifluoropropan-2-yl)-4H-1,2,4-triazol-3-yl)thiazol-4-yl)picolinamide], which IC50 [1, 4] is on record?
Answer: 0.7 nM

Question: With `C[C@H](n1cnnc1-c1nc(NC(=O)c2cc(-n3cnc(C4CC4)c3)c(N3CCC(C)(O)CC3)cn2)cs1)C(F)(F)F` [Example 14, (S)-4-(4-cyclopropyl-1H-imidazol-1-yl)-5-(4-hydroxy-4-methylpiperidin-1-yl)-N-(2-(4-(1,1,1-trifluoropropan-2-yl)-4H-1,2,4-triazol-3-yl)thiazol-4-yl)picolinamide] as the compound, how does the IC50 [1, 4] read?
Answer: 1.8 nM

Question: `CC1(O)CCN(c2cnc(C(=O)Nc3csc(-c4nncn4C4CC4)n3)cc2-n2cnc(C3CC3)c2)CC1` [Example 15, 4-(4-cyclopropylimidazol-1-yl)-N-[2-(4-cyclopropyl-1,2,4-triazol-3-yl)-1,3-thiazol-4-yl]-5-(4-hydroxy-4-methylpiperidin-1-yl)pyridine-2-carboxamide] was tested. Which IC50 [1, 4] did it give?
Answer: 2.5 nM

Question: For `C[C@H](n1cnnc1-c1nc(NC(=O)c2cc(-n3cnc(C4CC4)c3)c(N3CCN(C)CC3)cn2)cs1)C(F)(F)F` [Example 16, (S)-4-(4-cyclopropyl-1H-imidazol-1-yl)-5-(4-methylpiperazin-1-yl)-N-(2-(4-(1,1,1-trifluoropropan-2-yl)-4H-1,2,4-triazol-3-yl)thiazol-4-yl)picolinamide], which IC50 [1, 4] is on record?
Answer: 2.1 nM

Question: For `CN1CCN(c2cnc(C(=O)Nc3csc(-c4nncn4C4CC4)n3)cc2-n2cnc(C3CC3)c2)CC1` [Example 17, 4-(4-cyclopropylimidazol-1-yl)-N-[2-(4-cyclopropyl-1,2,4-triazol-3-yl)-1,3-thiazol-4-yl]-5-(4-methylpiperazin-1-yl)pyridine-2-carboxamide], which IC50 [1, 4] is on record?
Answer: 3.1 nM
